Test results as given in the RepoRT retention time repository (doi:10.1016/j.chroma.2015.03.063).

assay: Agilent ZORBAX Eclipse Plus C18, 100 × 2.1 mm, 1.8 µm, 25 °C, 0.3 mL/min, estimated dead time 0.73 min; A: water + 0.1% acetic acid; B: methanol; gradient (min/%B) 0/5 6/20 13/35 18/50 24/65 30/90 40/90; conditions: stereoisomer not certain

SMILES	LC retention time
OCC1OC(OC2(CO)OC(CO)C(O)C2O)C(O)C(O)C1O (stereo not drawn)	2.4 min
C[N+](C)(C)CCO	2.08 min
O=C(C=Cc1ccc(O)c(O)c1)OC1CC(O)(C(=O)O)CC(O)C1O (stereo not drawn)	8.99 min
O=C(O)c1cccnc1	3.34 min
NC(=O)CC(N)C(=O)O (stereo not drawn)	2.11 min
O=C(O)c1ccc(O)c(O)c1	7.74 min
CSCCC(N)C(=O)O (stereo not drawn)	3.21 min
OCC1OC(OCC2OC(OC3(CO)OC(CO)C(O)C3O)C(O)C(O)C2O)C(O)C(O)C1O (stereo not drawn)	2.54 min
CC(O)C(N)C(=O)O (stereo not drawn)	2.12 min
NC(Cc1c[nH]c2ccccc12)C(=O)O (stereo not drawn)	9.7 min
O=c1cc(-c2ccc(O)cc2)oc2cc(OC3OC(CO)C(O)C(O)C3O)cc(O)c12 (stereo not drawn)	18.2 min
COc1ccc(-c2coc3cc(O)ccc3c2=O)cc1O	23.6 min
Nc1ncnc2c1ncn2C1OC(CO)C(O)C1O (stereo not drawn)	5.25 min
CC(C)(O)C1CCC(C)(C2C(O)CC3(C)C4CC(OC5OC(CO)C(O)C(O)C5O)C5C(C)(C)C(OC6OCC(O)C(O)C6O)CCC56CC46CCC23C)O1 (stereo not drawn)	32.2 min
NC(N)=NCCCC(N)C(=O)O (stereo not drawn)	2.05 min
O=Cc1ccc(CO)o1	7.09 min
COc1ccc(-c2coc3cc(OC4OC(CO)C(O)C(O)C4O)ccc3c2=O)cc1O (stereo not drawn)	17.6 min
COC(=O)C1=COC(OC2OC(CO)C(O)C(O)C2O)C2C(CO)=CCC12 (stereo not drawn)	13.9 min
CCC(C)C(N)C(=O)O (stereo not drawn)	4.67 min
O=c1cc[nH]c(=O)[nH]1	4.2 min
C[N+](C)(C)CC(=O)[O-]	2.8 min

assay: RP, Thermo Scientific Accucore C18, 150 × 2.1 mm, 2.6 µm, 24 °C, 0.28 mL/min, estimated dead time 0.83 min; A: 90% water + 10% acetonitrile + 10 mM ammonium acetate; B: 20% water + 80% methanol + 10 mM ammonium acetate; gradient (min/%B) 0/0 2.5/0 7.5/30 12.5/30 15/40 20/100 27.5/100; conditions: stereoisomer not certain

SMILES	LC retention time
CC(Cc1ccccc1)NCCC#N (stereo not drawn)	8.95 min
CC1NCCOC1c1ccccc1 (stereo not drawn)	4.89 min
CC(Cc1ccc(O)cc1)NCC(O)c1cc(O)cc(O)c1 (stereo not drawn)	3.13 min
COc1cc(Cc2cnc(N)nc2N)cc(OC)c1OC	6.44 min
c1ccc(CN2CCNCC2)cc1	4.45 min
CN(C)CCC=C1c2ccccc2CCc2ccccc21	17.2 min
CC(Cc1ccccc1)NCCn1cnc2c1c(=O)n(C)c(=O)n2C (stereo not drawn)	8.9 min
CCCCCC(C)N (stereo not drawn)	6.13 min
CCN(CC)C(=O)c1ccc(O)c(OC)c1	8.07 min
COc1cccc(C2(O)CCCCC2CN(C)C)c1 (stereo not drawn)	7.44 min
C#CC1(O)CCC2C3CCC4=CC(=O)CCC4=C3C=CC21CC (stereo not drawn)	17.5 min
COc1ccc2c(c1)C13CCCCC1C(C2)N(C)CC3 (stereo not drawn)	11 min
Cc1ccccc1CC(C)N (stereo not drawn)	6.42 min
CCCC(Cc1ccccc1)N1CCCC1 (stereo not drawn)	9.51 min
CC(N)C(=O)c1ccccc1 (stereo not drawn)	8.59 min
CCN(CC)C(=O)Nc1ccc(OCC(O)CNC(C)(C)C)c(C(C)=O)c1 (stereo not drawn)	8.15 min
CCCCNc1cc(C(=O)O)cc(S(N)(=O)=O)c1Oc1ccccc1	9.25 min
CC(N)Cc1ccc2c(c1)OCO2 (stereo not drawn)	4.23 min
CC(C)NCC(O)COc1cccc2ccccc12 (stereo not drawn)	9.86 min

SMILES	LC retention time
CNC(C)C(=O)c1ccc(C)cc1 (stereo not drawn)	6.27 min
CC(C)NCC(O)COc1cccc2[nH]ccc12 (stereo not drawn)	5.15 min
CC12C=CC(=O)C=C1CCC1C2C(O)CC2(C)C1CCC2(O)C(=O)CO (stereo not drawn)	9.34 min
CCNC1C2CCC(C2)C1c1ccccc1 (stereo not drawn)	9.1 min
COc1ccc2c3c1OC1C(=O)CCC4(O)C(C2)N(C)CCC314 (stereo not drawn)	5.11 min
CNC(C)CCC=C(C)C (stereo not drawn)	7.13 min
COCCc1ccc(OCC(O)CNC(C)C)cc1 (stereo not drawn)	7.33 min
CC(C)(N)Cc1ccccc1	4.37 min
CC(C(O)c1ccccc1)N(C)C (stereo not drawn)	3.27 min
CN(C)C(=O)Oc1cc(OC(=O)N(C)C)cc(C(O)CNC(C)(C)C)c1 (stereo not drawn)	8.28 min
CC(C)NCC(O)COc1ccc(CCOCC2CC2)cc1 (stereo not drawn)	10.2 min
Cc1cc(C)cc(NC(=O)Cc2ccc(OC(C)(C)C(=O)O)cc2)c1	9.1 min
CC(=O)Oc1c(C)cc(OCC(O)CNC(C)C)c(C)c1C (stereo not drawn)	9.53 min
N=C1NC(=O)C(c2ccccc2)O1 (stereo not drawn)	3.65 min
COC12CCC3(CC1C(C)(O)C(C)(C)C)C1Cc4ccc(O)c5c4C3(CCN1CC1CC1)C2O5 (stereo not drawn)	22.2 min
C#CC1(O)CCC2C3C(C)CC4=C(CCC(=O)C4)C3CCC21C (stereo not drawn)	18.6 min
CC(C)NCC(O)COc1ccc(COCCOC(C)C)cc1 (stereo not drawn)	8.86 min
NC(=O)N1c2ccccc2C=Cc2ccccc21	10.7 min
